{"source": "ChEMBL document CHEMBL1159117", "about": "“Anti-invasive and anti-angiogenic activities of naturally occurring dibenzodiazepine BU-4664L and its derivatives” (Bioorg Med Chem Lett, 2010)", "key": {"HUVEC [1]": {"tested_on": "HUVEC", "assay": "Cytotoxicity against HUVEC cells", "assay_type": "cell-based", "conditions": "Homo sapiens"}, "[2]": {"assay": "Cytotoxicity against mouse Colon 26-L5 cells", "assay_type": "functional, cell-based"}, "HUVEC [3]": {"tested_on": "HUVEC", "assay": "Antiangiogenic activity against HUVEC cells assessed as inhibition of vascular formation after 6 hrs by […]", "assay_type": "functional, cell-based", "conditions": "Homo sapiens"}, "[4]": {"assay": "Cytotoxicity against HUVEC cells at >10 ug/ml", "assay_type": "cell-based", "conditions": "human, read-out: INH"}, "Renca [5]": {"tested_on": "Renca", "assay": "Antiinvasive activity against mouse Renca at >1 ug/ml by Matrigel assay", "assay_type": "functional"}, "Renca [6]": {"tested_on": "Renca", "assay": "Cytotoxicity against mouse Renca cells", "assay_type": "functional, cell-based"}, "Renca [7]": {"tested_on": "Renca", "assay": "Cytotoxicity against mouse Renca cells at >10 ug/ml", "assay_type": "functional"}, "Renca [8]": {"tested_on": "Renca", "assay": "Antiinvasive activity against mouse Renca by Matrigel assay", "assay_type": "functional, cell-based"}, "HUVEC [9]": {"tested_on": "HUVEC", "assay": "Antiangiogenic activity against HUVEC cells assessed as inhibition of vascular formation at >1 ug/ml after 6 hrs by […]", "assay_type": "functional, Homo sapiens"}, "[10]": {"assay": "Antiinvasive activity against mouse Colon 26-L5 by Matrigel assay", "assay_type": "functional"}, "[11]": {"assay": "Antiinvasive activity against mouse Colon 26-L5 at >1 ug/ml by Matrigel assay", "assay_type": "functional"}, "[12]": {"assay": "Cytotoxicity against mouse Colon 26-L5 cells at >1 ug/ml", "assay_type": "functional"}, "[13]": {"assay": "Antiinvasive activity against mouse Colon 26-L5 assessed as inhibition of cell migration at >1 ug/ml after 6 hrs by Matrigel assay", "assay_type": "functional"}, "[14]": {"assay": "Antiinvasive activity against mouse Colon 26-L5 assessed as inhibition of cell migration after 6 hrs by Matrigel assay", "assay_type": "functional"}, "HUVEC [15]": {"tested_on": "HUVEC", "assay": "Antiinvasive activity against HUVEC assessed as inhibition of cell migration after 6 hrs by Matrigel assay", "assay_type": "functional, cell-based", "conditions": "Homo sapiens"}, "[16]": {"target": "Matrix metalloproteinase-9 (Homo sapiens, UniProt P14780)", "sequence (P14780 whole entry)": "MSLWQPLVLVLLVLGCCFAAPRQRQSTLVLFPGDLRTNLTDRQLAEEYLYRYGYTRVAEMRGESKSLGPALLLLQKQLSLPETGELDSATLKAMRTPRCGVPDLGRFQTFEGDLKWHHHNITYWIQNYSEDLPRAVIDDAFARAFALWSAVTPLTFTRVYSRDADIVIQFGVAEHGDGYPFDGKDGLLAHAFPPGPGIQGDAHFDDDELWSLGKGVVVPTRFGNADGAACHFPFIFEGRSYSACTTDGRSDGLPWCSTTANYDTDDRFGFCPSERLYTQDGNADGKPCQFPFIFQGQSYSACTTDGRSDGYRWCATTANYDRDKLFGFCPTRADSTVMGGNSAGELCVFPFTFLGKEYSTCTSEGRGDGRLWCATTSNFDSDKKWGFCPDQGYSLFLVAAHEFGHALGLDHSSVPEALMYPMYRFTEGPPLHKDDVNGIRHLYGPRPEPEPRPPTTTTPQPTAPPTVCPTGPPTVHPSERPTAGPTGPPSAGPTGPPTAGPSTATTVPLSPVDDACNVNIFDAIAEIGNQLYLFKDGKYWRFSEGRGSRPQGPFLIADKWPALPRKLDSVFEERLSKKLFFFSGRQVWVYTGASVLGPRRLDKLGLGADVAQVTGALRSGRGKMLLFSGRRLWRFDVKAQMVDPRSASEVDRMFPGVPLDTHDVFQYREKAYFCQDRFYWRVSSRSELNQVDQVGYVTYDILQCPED", "assay": "Inhibition of MMP9"}, "[17]": {"target": "72 kDa type IV collagenase (Homo sapiens, UniProt P08253)", "sequence (P08253 whole entry)": "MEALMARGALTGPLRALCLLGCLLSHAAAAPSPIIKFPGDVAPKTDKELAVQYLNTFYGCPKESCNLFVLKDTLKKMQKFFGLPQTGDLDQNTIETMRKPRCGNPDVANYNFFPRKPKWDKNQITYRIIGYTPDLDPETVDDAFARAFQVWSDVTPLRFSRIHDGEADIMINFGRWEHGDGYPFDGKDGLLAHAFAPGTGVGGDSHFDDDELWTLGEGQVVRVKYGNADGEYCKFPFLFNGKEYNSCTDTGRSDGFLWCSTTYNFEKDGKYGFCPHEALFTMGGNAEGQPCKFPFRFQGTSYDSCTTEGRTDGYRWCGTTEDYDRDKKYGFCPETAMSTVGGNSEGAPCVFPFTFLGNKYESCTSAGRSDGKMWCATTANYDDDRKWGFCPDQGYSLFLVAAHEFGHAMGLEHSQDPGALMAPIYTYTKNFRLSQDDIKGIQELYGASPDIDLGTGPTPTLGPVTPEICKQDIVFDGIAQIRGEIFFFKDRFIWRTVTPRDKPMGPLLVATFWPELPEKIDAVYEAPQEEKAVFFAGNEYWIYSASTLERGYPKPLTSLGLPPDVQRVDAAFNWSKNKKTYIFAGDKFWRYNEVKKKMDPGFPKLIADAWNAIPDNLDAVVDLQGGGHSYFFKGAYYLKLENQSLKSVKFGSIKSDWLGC", "assay": "Inhibition of MMP2"}}}
{"smiles": "CC(=O)Oc1cc(OC(C)=O)c2c(c1)N(C/C=C(\\C)CC/C=C(\\C)CCC=C(C)C)C(=O)c1cccc(OC(C)=O)c1N2", "values": [{"measurement": "IC50", "setting": "HUVEC [1]", "result": "> 10", "unit": "µg/mL"}, {"measurement": "IC50", "setting": "[2]", "result": 7.6, "unit": "µg/mL"}, {"measurement": "IC50", "setting": "HUVEC [3]", "result": "> 1", "unit": "µg/mL"}, {"measurement": "cytotoxicity", "setting": "[4]", "result": 0, "unit": "%"}, {"measurement": "inhibition (INH)", "setting": "Renca [5]", "result": 40, "unit": "%"}, {"measurement": "IC50", "setting": "Renca [6]", "result": "> 10", "unit": "µg/mL"}, {"measurement": "inhibition (INH)", "setting": "Renca [7]", "result": 0, "unit": "%"}, {"measurement": "IC50", "setting": "Renca [8]", "result": "> 1", "unit": "µg/mL"}, {"measurement": "inhibition (INH)", "setting": "HUVEC [9]", "result": 0, "unit": "%"}, {"measurement": "IC50", "setting": "[10]", "result": "> 1", "unit": "µg/mL"}, {"measurement": "inhibition (INH)", "setting": "[11]", "result": 0, "unit": "%"}]}
{"smiles": "COc1cc(OC)c2c(c1)N(CCC(C)CCCC(C)CCCC(C)C)C(=O)c1cccc(OC)c1N2", "note": "(stereo not drawn)", "values": [{"measurement": "IC50", "setting": "HUVEC [1]", "result": "> 10", "unit": "µg/mL"}, {"measurement": "IC50", "setting": "[2]", "result": "> 10", "unit": "µg/mL"}, {"measurement": "IC50", "setting": "HUVEC [3]", "result": "> 1", "unit": "µg/mL"}, {"measurement": "cytotoxicity", "setting": "[4]", "result": 32, "unit": "%"}, {"measurement": "inhibition (INH)", "setting": "[12]", "result": 8, "unit": "%"}, {"measurement": "inhibition (INH)", "setting": "Renca [5]", "result": 44, "unit": "%"}, {"measurement": "IC50", "setting": "Renca [6]", "result": "> 10", "unit": "µg/mL"}, {"measurement": "inhibition (INH)", "setting": "Renca [7]", "result": 31, "unit": "%"}, {"measurement": "IC50", "setting": "Renca [8]", "result": 1, "unit": "µg/mL"}, {"measurement": "inhibition (INH)", "setting": "HUVEC [9]", "result": 30, "unit": "%"}, {"measurement": "IC50", "setting": "[10]", "result": 1, "unit": "µg/mL"}]}
{"smiles": "CC(C)CCCC(C)CCCC(C)CCN1C(=O)c2cccc(O)c2Nc2c(O)cc(O)cc21", "note": "(stereo not drawn)", "values": [{"measurement": "IC50", "setting": "HUVEC [1]", "result": "> 10", "unit": "µg/mL"}, {"measurement": "IC50", "setting": "[2]", "result": 10, "unit": "µg/mL"}, {"measurement": "IC50", "setting": "HUVEC [3]", "result": 0.23, "unit": "µg/mL"}, {"measurement": "cytotoxicity", "setting": "[4]", "result": 0, "unit": "%"}, {"measurement": "inhibition (INH)", "setting": "Renca [5]", "result": 40, "unit": "%"}, {"measurement": "inhibition (INH)", "setting": "[13]", "result": 22, "unit": "%"}, {"measurement": "IC50", "setting": "Renca [6]", "result": "> 10", "unit": "µg/mL"}, {"measurement": "inhibition (INH)", "setting": "Renca [7]", "result": 0, "unit": "%"}, {"measurement": "IC50", "setting": "Renca [8]", "result": "> 1", "unit": "µg/mL"}, {"measurement": "IC50", "setting": "[10]", "result": "> 1", "unit": "µg/mL"}, {"measurement": "inhibition (INH)", "setting": "[11]", "result": 30, "unit": "%"}, {"measurement": "IC50", "setting": "[14]", "result": "> 1", "unit": "µg/mL"}, {"measurement": "IC50", "setting": "HUVEC [15]", "result": 0.0024, "unit": "µg/mL"}]}
{"smiles": "COc1cc(OC)c2c(c1)N(C/C=C(\\C)CC/C=C(\\C)CCC=C(C)C)C(=O)c1cccc(OC)c1N2", "values": [{"measurement": "IC50", "setting": "HUVEC [1]", "result": "> 10", "unit": "µg/mL"}, {"measurement": "IC50", "setting": "[2]", "result": "> 10", "unit": "µg/mL"}, {"measurement": "IC50", "setting": "HUVEC [3]", "result": 0.11, "unit": "µg/mL"}, {"measurement": "cytotoxicity", "setting": "[4]", "result": 0, "unit": "%"}, {"measurement": "inhibition (INH)", "setting": "[12]", "result": 30, "unit": "%"}, {"measurement": "IC50", "setting": "Renca [6]", "result": "> 10", "unit": "µg/mL"}, {"measurement": "inhibition (INH)", "setting": "Renca [7]", "result": 40, "unit": "%"}, {"measurement": "IC50", "setting": "Renca [8]", "result": 0.78, "unit": "µg/mL"}, {"measurement": "IC50", "setting": "[10]", "result": 1, "unit": "µg/mL"}, {"measurement": "IC50", "setting": "[14]", "result": 0.67, "unit": "µg/mL"}, {"measurement": "IC50", "setting": "HUVEC [15]", "result": 0.0076, "unit": "µg/mL"}]}
{"smiles": "CC(C)=CCC/C(C)=C/CC/C(C)=C/CN1C(=O)c2cccc(O)c2Nc2c(O)cc(O)cc21", "note": "[DIAZEPINOMICIN]", "values": [{"measurement": "IC50", "setting": "HUVEC [1]", "result": 2, "unit": "µg/mL"}, {"measurement": "IC50", "setting": "[2]", "result": 7.8, "unit": "µg/mL"}, {"measurement": "IC50", "setting": "HUVEC [3]", "result": 0.72, "unit": "µg/mL"}, {"measurement": "IC50", "setting": "Renca [6]", "result": 8.3, "unit": "µg/mL"}, {"measurement": "IC50", "setting": "[16]", "result": 1300, "unit": "nM"}, {"measurement": "IC50", "setting": "Renca [8]", "result": 0.78, "unit": "µg/mL"}, {"measurement": "IC50", "setting": "[10]", "result": 1, "unit": "µg/mL"}, {"measurement": "IC50", "setting": "[14]", "result": 0.63, "unit": "µg/mL"}, {"measurement": "IC50", "setting": "HUVEC [15]", "result": 0.43, "unit": "µg/mL"}, {"measurement": "IC50", "setting": "[17]", "result": 994, "unit": "nM"}]}
{"smiles": "CO[C@@H]1[C@H](OC(=O)/C=C/C=C/C=C/C=C/C(=O)O)CC[C@]2(CO2)[C@H]1[C@@]1(C)O[C@@H]1CC=C(C)C", "note": "[FUMAGILLIN]", "values": [{"measurement": "IC50", "setting": "HUVEC [3]", "result": 0.034, "unit": "µg/mL"}, {"measurement": "IC50", "setting": "HUVEC [15]", "result": 0.023, "unit": "µg/mL"}]}
